Measurements taken from patent publication US20240366638A1, “[…] FOR TREATING PSY[…]” (SYNAPTIVE THERAPEUTICS LLC, priority 2021, published 2024).
“Also recorded” adds a separate entry of the source.

Tests used:
male C57BL/6 mice [1] = experiment: Tail suspension test (TST); assay type: in vivo; settings: for TST: summary of effect on behavior, doses tested IP, mice; for Tail suspension test activity (time immobile), statistical comparison between groups: various doses IP, 6 minutes, one-way ANOVA with Tukey's test, ketamine positive control
Experimental: (§1) The tail-suspension test (TST) is a model of depression and has been used to screen prospective antidepressant compounds. It involves suspending mice above the ground by their tails with tape for a predetermined time. A 17 cm piece of tape was taped to the tail (2 cm of the 17 cm) of each mouse and then attached to a metal shelf for 6 minutes. Each mouse was digitally recorded and data analyzed using specialized software with particular focus on time immobile. After the trial, tape was removed and mice returned to their home cage.
(§2) Statistical analysis. Data were analyzed using a one-way ANOVA with drug dose as the primary factor. Post-hoc multiple comparison analysis was performed following significant main effects using Tukey's multiple comparisons test (GraphPad Prism 9.2.0). Statistical significance was set at P<0.05.
(§3) Results. A total of 170 male C57BL/6 mice were used for this study (see TABLE 3.). One mouse in the diazepam group died of unknown causes. Another mouse developed a skin condition in the aeruginascin (1.0 mg/kg) group and was excluded from the FST test. All other test groups consisted of N=10 per group. Statistical comparisons are noted in each figure legend.

male C57BL/6 mice [2] = experiment: Elevated plus maze (EPM), time on open arms; assay type: in vivo; parameters: key to EPM: ↓ = decrease; ↑ = increase; neg = negative; pos = positive; ns = not statistically significant; settings: for EPM: summary of effect on behavior (time on open arms), doses tested IP; for Time spent on the open arms of the EPM, statistical comparison between groups: various doses IP, 5 minutes, one-way ANOVA with Tukey's test, diazepam positive control
Experimental: (§4) The elevated plus maze (EPM) is a behavioral assay that measures anxiety in rodents. The apparatus is composed of open and closed arms arranged in a “plus” measuring, 35 cm arm length; 5 cm arm width; 20 cm wall height and stands 61 cm height. Each mouse was placed on the maze within the center area facing towards an open arm and allowed to explore the EPM for 5 minutes. The experimenter observed the mouse from outside the test room through an observational window. Behavior was recorded via a digital camera mounted above the maze. The apparatus was cleaned with Peroxigard wipes after each trial.
as §2, §3

male C57BL/6 mice [3] = experiment: Open field test (OFT), locomotor activity; assay type: in vivo; parameters: key to OFT: ↓ = decrease; ↑ = increase; neg = negative; pos = positive; ns = not statistically significant; settings: for OFT: summary of effect on overall locomotor activity, doses tested IP, mice; for Locomotor activity in the open field, statistical comparison between groups: various doses IP, 30 min period, one-way ANOVA with Tukey's test, diazepam positive control
Experimental: (§5) Methods. The open field test (OFT) was conducted by placing a mouse in a gray chamber 40×40 cm of 30 cm height and allowed to explore at will for 30 minutes. A digital camera positioned above the chamber recorded behavior. Animals that spend more time in the center (open area) compared to along the walls (thigmotaxis) are deemed less anxious. The open field apparatus was cleaned with Peroxigard wipes after each use.
as §2, §3

male C57BL/6 mice [4] = experiment: Open field test (OFT), time in center zone; assay type: in vivo; parameters: key to OFT (center time): ↓ = decrease; ↑ = increase; neg = negative; pos = positive; ns = not statistically significant; settings: for OFT (center time): summary of effect on behavior, doses tested IP; for Time in the center zone of the open field chamber, statistical comparison between groups: various doses IP, 30 min period, one-way ANOVA with Tukey's test, diazepam positive control
Experimental: as §5, §2, §3

male C57BL/6 mice [5] = experiment: Forced swim test (FST); assay type: in vivo; parameters: key to FST: ↓ = decrease; ↑ = increase; neg = negative; pos = positive; ns = not statistically significant; settings: for FST: summary of effect on behavior, doses tested IP, mice; for Forced swim test activity, statistical comparison between groups: various doses IP, 6 minutes, one-way ANOVA with Tukey's test, ketamine positive control
Experimental: (§6) The forced swim test is a classic behavioral assay to test for depressive behavior such as immobility. The apparatus is composed of a Plexiglas cylinder measuring (20 cm diameter, 45 cm height) that is filled with water maintained at room temperature (23-25 C). During testing, mice were placed into the water by the nape of the neck facing the wall and released and behavior recorded via a digital camera for 6 minutes. After the test, mice were dried off with a towel and placed in their home cage in which half is heated by a heating pad placed underneath the cage. Fecal matter was removed after every test. Water was changed after 10 mice were run in each cylinder. After the completion of the experiment, water was drained and the cylinder cleaned with Peroxigard wipes.
as §2, §3

male C57BL/6 mice [6] = experiment: Animal models of anxiety and depression in mice, overall (OFT, EPM, TST, FST); assay type: in vivo; settings: IP, FST taken together
Experimental: Summary. The goal of the present project was to assess psilocybin metabolites in animal models of anxiety and depression in mice. Specifically, baeocystin (0.3 mg/kg-30 mg/kg), norbaeocystin (0.3-3.0 mg/kg), aeruginascin (0.3-3.0 mg/kg) and norpsilocin (0.3-3.0 mg/kg) were tested in the open field test (OFT), elevated plus maze (EPM), tail suspension test (TST) and forced swim test (FST). Overall, most compounds were ineffective and/or increased negative behaviors.
as §5, §4, §1
as §6, with “After the completion of the experiment, water was drained and the cylinder cleaned with Peroxigard wipes.” left out
Statistical analysis. Data were analyzed using a one-way ANOVA with drug dose as the primary factor. […]

[7] = cited from earlier work

With `NCCc1c[nH]c2cccc(OP(=O)(O)O)c12` [Norbaeocystin] the TST (male C57BL/6 mice [1]) was “↑ (neg)”, the “Tail suspension test activity (time immobile), statistical comparison between groups” value (from here on “Tail suspension test activity”) (male C57BL/6 mice [1]) was “significant differences between saline and ketamine and all doses of norbaeocystin” and the EPM (male C57BL/6 mice [2]; mice) was “ns”. For the same molecule, the “Time spent on the open arms of the EPM, statistical comparison between groups” value (“Time spent on the open arms of the EPM” below) (male C57BL/6 mice [2]) was “no differences between groups”, the OFT (male C57BL/6 mice [3]) was “ns” and the “Locomotor activity in the open field, statistical comparison between groups” value (“Locomotor activity in the open field” below) (male C57BL/6 mice [3]) was “a trend towards a difference between norbaeocystin 1.0 vs. 3.0 mg/kg”. For the same molecule, the “OFT (center time)” value (male C57BL/6 mice [4]; mice) was “↓ (neg)”, the “Time in the center zone of the open field chamber, statistical comparison between groups” value (from here on “Time in the center zone”) (male C57BL/6 mice [4]) was “significant difference between diazepam and the highest dose of norbeaocystin” and the FST (male C57BL/6 mice [5]) was “ns”. For the same molecule, the “Forced swim test activity, statistical comparison between groups” value (“Forced swim test activity” below) (male C57BL/6 mice [5]) was “no significant differences between groups” and the “Overall effect across behavioral tests of anxiety and depression” value (shortened to “Overall effect across behavioral tests”) (male C57BL/6 mice [6]) was “either produced no significant effect or a significant negative impact across all behavioral tests”.

For `C[N+](C)(C)CCc1c[nH]c2cccc(OP(=O)(O)O)c12` [Aeruginascin], the TST (male C57BL/6 mice [1]) was “↑ (neg)”, the “Tail suspension test activity” value (male C57BL/6 mice [1]) was “significant differences between saline and ketamine and all doses of aeruginascin” and the EPM (male C57BL/6 mice [2]; mice) was “ns”. For the same molecule, the “Time spent on the open arms of the EPM” value (male C57BL/6 mice [2]) was “no differences between groups”, the OFT (male C57BL/6 mice [3]) was “↓ (neg)” and the “Locomotor activity in the open field” value (male C57BL/6 mice [3]) was “significant difference between aeruginascin 0.3 and 1.0 mg/kg”. For the same molecule, the “OFT (center time)” value (male C57BL/6 mice [4]; mice) was “ns”, the “Time in the center zone” value (male C57BL/6 mice [4]) was “no significant differences between groups” and the FST (male C57BL/6 mice [5]) was “↑ (neg)”. For the same molecule, the “Forced swim test activity” value (male C57BL/6 mice [5]) was “significant differences between ketamine and aeruginascin 0.3 and 3.0 mg/kg doses” and the “Overall effect across behavioral tests” value (male C57BL/6 mice [6]) was “either produced no significant effect or a significant negative impact across all behavioral tests”.

With `CNCCc1c[nH]c2cccc(OP(=O)(O)O)c12` [Baeocystin] the TST (male C57BL/6 mice [1]) was “↑ (neg)”, the “Tail suspension test activity” value (male C57BL/6 mice [1]) was “significant differences between the two highest doses of baeocystin and other groups” and the “Time spent on the open arms in the EPM” value (male C57BL/6 mice [2]; 10 mg/kg, IP, mice) was “tended to increase time spent on the open arms however, this did not reach statistical significance”. For the same molecule, the “Time spent on the open arm in the EPM” value (male C57BL/6 mice [2]; 30 mg/kg (highest dose), IP, mice) was “significantly increased time spent on the open arm”, the EPM (male C57BL/6 mice [2]; mice) was “↑ (pos)” and the “Time spent on the open arms of the EPM” value (male C57BL/6 mice [2]) was “the highest dose of baeocystine increased time spent on the open arm compared to saline”. For the same molecule, the OFT (male C57BL/6 mice [3]) was “↓ (neg)”, the “Locomotor activity in the open field” value (male C57BL/6 mice [3]) was “significant differences between the highest dose of baeocystin and all other groups” and the “Hallucinogenic effect in a self-administered assay” value ([7]; 4 mg of baeocystin, Gartz research paper) was “a gentle hallucinogenic experience”. For the same molecule, the “Psychoactivity in humans compared with psilocybin” value ([7]; 10 mg of baeocystin, study reported by Gartz) was “about as psychoactive as a similar amount of psilocybin”, the “OFT (center time)” value (male C57BL/6 mice [4]; mice) was “ns” and the “Time in the center zone” value (male C57BL/6 mice [4]) was “no significant difference between groups”. The FST (male C57BL/6 mice [5]) was “ns”, the “Forced swim test activity” value (male C57BL/6 mice [5]) was “no significant differences between groups” and the “Overall effect across behavioral tests” value (male C57BL/6 mice [6]) was “can exert anxiolytic effects in mice using certain behavioral procedures; also recorded: have anxiolytic activity and no harmful psychoactive effects, including no depressive activity”.

With `CNCCc1c[nH]c2cccc(O)c12` [Norpsilocin] the TST (male C57BL/6 mice [1]) was “↑ (neg)”, the “Tail suspension test activity” value (male C57BL/6 mice [1]) was “significant differences between ketamine and all doses of norpsilocin” and the EPM (male C57BL/6 mice [2]; mice) was “ns”. For the same molecule, the “Time spent on the open arms of the EPM” value (male C57BL/6 mice [2]) was “no differences between groups”, the OFT (male C57BL/6 mice [3]) was “↓ (neg)” and the “Locomotor activity in the open field” value (male C57BL/6 mice [3]) was “significant differences between diazepam and norpsilocin 1.0 and 3.0 mg/kg”. For the same molecule, the “Time spent in the center zone in the OFT” value (male C57BL/6 mice [4]; 3.0 mg/kg, IP, mice) was “the only compound that increased time spent in the center zone in the OFT and this effect was highly significant”, the “OFT (center time)” value (male C57BL/6 mice [4]; mice) was “↑ (pos)” and the “Time in the center zone” value (male C57BL/6 mice [4]) was “significantly increased time spent in the center zone of the OFT; also recorded: highly significant differences between the highest dose of norpsilocin and all other groups”. For the same molecule, the FST (male C57BL/6 mice [5]) was “ns”, the “Forced swim test activity” value (male C57BL/6 mice [5]) was “no differences between any groups” and the “Overall effect across behavioral tests” value (male C57BL/6 mice [6]) was “can exert anxiolytic effects in mice using certain behavioral procedures; also recorded: have anxiolytic activity and no harmful psychoactive effects, including no depressive activity”.
